Source: patent US8637664B2, “Alkyl 4- [4- (5-oxo-2,3,5, 11a-tetrahydo-5H-pyrrolo [2, 1-c] [1,4] benzodiazepine-8-yloxy)-butyrylamino]-1H-pyrrole-2-carboxylate derivatives and related compounds for the treatment of a proliferative disease” (Spirogen SARL, priority 2005, dated 2014)

System: calf thymus DNA (CT-DNA)
Assay: DNA thermal denaturation (melting) studies
Assay type: binding
Settings: CT-DNA 100 μM DNAp, compound 20 μM, 37 °C; for Induced ΔTm after incubation 0 hours: pH 7.00, 0 hours; for Induced ΔTm after incubation 4 hours: pH 7.00, 4 hours; for Induced ΔTm after incubation 18 hours: pH 7.00, 18 hours; for Induced ΔTm after incubation 72 hours: pH 7.00, 72 hours
Protocol: The PBD agents were subjected to DNA thermal melting (denaturation) studies (Gregson, S. J., et al., Journal of Medicinal Chemistry, 44(5), 737-748 (2001); Jones, G. B., et al., Anti-Cancer Drug Design, 5(3), 249-264 (1990); McConnaughie, A. W. and; Jenkins, T. C. Journal of Medicinal Chemistry, 38(18), 3488-3501 (1995)) using calf thymus DNA (CT-DNA, type-1, highly polymerized sodium salt; 42% G+C [Sigma]) at a fixed 100 μM (DNAp=50 μM bp) concentration, determined using an extinction coefficient of 6600 (M phosphate)^−1 cm^−1 at 260 nm (Manzini, G., et al., Nucleic Acids Research, 11(24), 8861-8876 (1983)). Solutions were prepared in pH 7.00±0.01 aqueous buffer containing 10 mM NaH2PO4/Na2HPO4 and 1 mM EDTA. Working solutions containing CT-DNA and the test compound (20 μM) were incubated at 37.0±0.1° C. for 0 to 18 hours using an external water bath. Samples were monitored at 260 nm using a Varian-Cary 400 Bio spectrophotometer fitted with a Peltier heating accessory. Heating was applied at a rate of 1° C./min in the 45 to 98° C. temperature range, with optical and temperature data sampling at 200 ms intervals. A separate experiment was carried out using buffer alone, and this baseline was subtracted from each DNA melting curve before data treatment. Optical data were imported into the Origin 5 program (MicroCal Inc., Northampton, Mass.) for analysis. DNA helix→coil transition temperatures (Tm) were determined at the midpoint of the normalized melting profiles using a published analytical procedure (Jones, G. B., et al., Anti-Cancer Drug Design, 5(3), 249-264 (1990)). Results are given in table 1 as the mean±standard deviation from at least three determinations. Ligand-induced alterations in DNA melting behaviour (ΔTm) are given by ΔTm=Tm(DNA+ligand)−Tm(DNA), where the Tm value determined for free CT-DNA is 67.82±0.06° C. (averaged from >90 runs). All PBD compounds were dissolved in HPLC-grade MeOH to give working solutions containing ≦0.6% v/v MeOH; Tm results were corrected for the effects of MeOH co-solvent by using a linear correction term.
The above method was also carried out on the compounds of example 2, with all compounds being incubated for up to 72 hours.

Row | SMILES | Induced ΔTm after incubation 0 hours | Induced ΔTm after incubation 4 hours | Induced ΔTm after incubation 18 hours | Induced ΔTm after incubation 72 hours
1 | COC(=O)c1cc(NC(=O)c2csc(NC(=O)CCCOc3cc4c(cc3OC)C(=O)N3CCC[C@H]3C=N4)n2)cn1C [Compound 55] | 14.5 °C | 15.2 °C | 15.8 °C | 16.1 °C
2 | COC(=O)c1cc(NC(=O)c2nc(NC(=O)CCCOc3cc4c(cc3OC)C(=O)N3CCC[C@H]3C=N4)cn2C)cn1C [Compound 57, (11aS) Methyl 4-({4-[4-(7-Methoxy-5-oxo-2,3,5,11a-tetrahydro-5H-pyrrolo[2,1-c][1,4]benzodiazepine-8-yloxy)-butyrylamino]-1-methyl-1H-imidazole-2-carbonyl}-amino)-1-methyl-1H-pyrrole-2-carboxylate] | 2.8 °C | 3.0 °C | 3.1 °C | 3.2 °C
3 | CCOC(=O)c1nc(NC(=O)c2nc(NC(=O)CCCOc3cc4c(cc3OC)C(=O)N3CCC[C@H]3C=N4)cn2C)cn1C [Compound 59, (11aS) Ethyl 4-({4-[4-(7-Methoxy-5-oxo-2,3,5,11a-tetrahydro-5H-pyrrolo[2,1-c][1,4]benzodiazepine-8-yloxy)-butyrylamino]-1-methyl-1H-imidazole-2-carbonyl}-amino)-1-methyl-1H-imidazole-2-carboxylate] | 10.3 °C | 10.9 °C | 11.4 °C | 11.4 °C
4 | CCOC(=O)c1csc(NC(=O)c2csc(NC(=O)CCCOc3cc4c(cc3OC)C(=O)N3CCC[C@H]3C=N4)n2)n1 [Compound 61, (11aS) Ethyl 2-({2-[4-(7-Methoxy-5-oxo-2,3,5,11a-tetrahydro-5H-pyrrolo[2,1-c][1,4]benzodiazepine-8-yloxy)-butyrylamino]-thiazole-4-carbonyl}-amino)-thiazole-4-carboxylate] | 7.7 °C | 8.0 °C | 8.3 °C | 8.4 °C
5 | CCOC(=O)c1csc(NC(=O)c2cc(NC(=O)CCCOc3cc4c(cc3OC)C(=O)N3CCC[C@H]3C=N4)cn2C)n1 [Compound 63, (11aS) Ethyl 2-({4-[4-(7-Methoxy-5-oxo-2,3,5,11a-tetrahydro-5H-pyrrolo[2,1-c][1,4]benzodiazepine-8-yloxy)-butyrylamino]-1-methyl-1H-pyrrole-2-carbonyl}-amino)-thiazole-4-carboxylate] | 9.3 °C | 9.6 °C | 10.2 °C | 10.5 °C
6 | CCOC(=O)c1nc(NC(=O)c2cc(NC(=O)CCCOc3cc4c(cc3OC)C(=O)N3CCC[C@H]3C=N4)cn2C)cn1C [Compound 65, (11aS) Ethyl 4-({4-[4-(7-Methoxy-5-oxo-2,3,5,11a-tetrahydro-5H-pyrrolo[2,1-c][1,4]benzodiazepine-8-yloxy)-butyrylamino]-1-methyl-1H-pyrrole-2-carbonyl}-amino)-1-methyl-1H-imidazole-2-carboxylate] | 10.0 °C | 10.7 °C | 11.2 °C | 11.3 °C
7 | COC(=O)c1cc(NC(=O)c2nc(NC(=O)c3nc(NC(=O)CCCOc4cc5c(cc4OC)C(=O)N4CCC[C@H]4C=N5)cn3C)cn2C)cn1C [Compound 75] | 14.3 °C | 15.0 °C | 15.4 °C | 15.6 °C
8 | CCOC(=O)c1nc(NC(=O)c2cc(NC(=O)c3cc(NC(=O)CCCOc4cc5c(cc4OC)C(=O)N4CCC[C@H]4C=N5)cn3C)cn2C)cn1C [Compound 79] | 13.9 °C | 14.8 °C | 15.2 °C | 15.5 °C
